Measured values from PubChem BioAssay AID489010 (Southern Research Specialized Biocontainment Screening …, 2010).
Calls of active or inactive are those of the source. How the calls were made is not given here.

Assay: M. tuberculosis H37Rv growth inhibition, dose response, strain H37Rv (AID 489010)
Details: M. tuberculosis H37Rv growth inhibition; at 100 µM (top of the series)

Row | SMILES | growth inhibition
1 | O=C(Cc1cc(=O)[nH][nH]1)N/N=C/c1ccccc1[N+](=O)[O-] | -0.39% (inactive)
2 | COc1ccc(/C=C2/C(=O)N(c3ccccc3)N=C2C)c(OC)c1 | 4.59% (inactive)
3 | O=c1cc(-c2ccc(Cl)c(Cl)c2)[nH][nH]1 | 1.79% (inactive)
4 | COc1ccc(-c2[nH]nc3c2C(c2ccoc2)C(C#N)=C(N)O3)cc1 (stereo not given) | -0.09% (inactive)
5 | Cc1ccc(C2C(C#N)=C(N)Oc3n[nH]c(-c4cccs4)c32)cc1 (stereo not given) | 3.65% (inactive)
6 | CCOC(=O)C1CCN(C(=O)c2c(C)oc3c2C(=O)c2ccccc2C3=O)CC1 | 27.9% (inactive)
7 | N#CC1=C(N)Oc2n[nH]c(-c3ccccc3)c2C1c1cccc(OC(=O)N2CCOCC2)c1 (stereo not given) | -2.13% (inactive)
8 | O=c1cc(-c2ccc(Br)cc2)[nH][nH]1 | -4.27% (inactive)
9 | Cc1cc(-c2[nH]nc3c2C(c2ccsc2)C(C#N)=C(N)O3)c(C)s1 (stereo not given) | 3.11% (inactive)
10 | CCOc1cc(C2C(C#N)=C(N)Oc3n[nH]c(-c4ccccc4)c32)ccc1O (stereo not given) | 4.87% (inactive)
11 | Cc1ccc(-c2cc(=O)[nH][nH]2)c(C)c1 | 1.66% (inactive)
12 | Fc1ccc(Nc2nc(Oc3ccccc3F)nc(N3CCCC3)n2)cc1 | -4.07% (inactive)
13 | CC(C)CCn1c(N)c(C(=O)NCc2cccs2)c2nc3ccccc3nc21 | -0.29% (inactive)
14 | O=C(CSc1nnc(-c2ccccc2Cl)o1)Oc1ccc(Br)cc1 | 0.13% (inactive)
15 | N#CC1=C(N)Oc2n[nH]c(-c3cccs3)c2C1c1ccccc1C(=O)O (stereo not given) | 10.2% (inactive)
16 | O=C(Cc1cc(=O)[nH][nH]1)N/N=C/c1cccc2ccccc12 | 0.57% (inactive)
17 | O=C1CC(CSc2ccc(Cl)cc2)=NN1 | -0.64% (inactive)
18 | O=C(Cc1cc(=O)[nH][nH]1)N/N=C/c1ccccc1Cl | 2.61% (inactive)
19 | Cc1ccc(-c2[nH]nc3c2C(c2ccc(OC(=O)N4CCOCC4)cc2)C(C#N)=C(N)O3)cc1 (stereo not given) | 3.59% (inactive)
20 | O=C(Cc1cc(=O)[nH][nH]1)N/N=C/c1c(F)cccc1Cl | 1.68% (inactive)
21 | Cc1cc(-c2[nH]nc3c2C(c2ccc(Cl)cc2)C(C#N)=C(N)O3)c(C)s1 (stereo not given) | 8.76% (inactive)
22 | N#CC1=C(N)Oc2n[nH]c(-c3cccs3)c2C1c1cccs1 (stereo not given) | -0.42% (inactive)
23 | Cc1ccccc1-c1nc(CN(C)C(C)c2ccon2)c(C)o1 (stereo not given) | 4.51% (inactive)
24 | COc1ccc(/C=C2/C(=O)N(c3ccccc3)N=C2C)cc1OC | 3.28% (inactive)
25 | CCOc1ccc(-c2[nH]nc3c2C(c2ccc(O)cc2)C(C#N)=C(N)O3)cc1 (stereo not given) | -1.9% (inactive)
